Results: patent US20220378707A1, “1-(((2S,3S,4S)-3-ETHYL-4-FLUORO-5-OXOPYRROLIDIN-2-YL)METHOXY)-7-METHOXYISOQUINOLINE-6-CARBOXAMIDE COMBINATIONS AND ORAL DOSAGE FORMS” (Pfizer Inc., priority 2019, published 2022)
Entries after “also recorded” stand apart in the source; their conditions may differ.

Columns and labels:
[1] = tested on: human primary cell-based systems; test: BioMAP panel of 12 systems; settings: for Number of annotated readouts with activity / Overt cytotoxicity on primary human cell types: 12 tissue and disease models; for Immunomodulatory activities: Decreased Activity / Inflammation-related activities: Decreased Activity: PF-06651600 200-5400 nM
Description: (§1) The BioMAP systems consist of human primary cell-based systems designed to model different aspects of the human body in an in vitro format. The 12 systems tested characterized the test compounds across a broad set of systems modeling various human disease states. BioMAP systems were constructed with one or more primary cell types from healthy human donors, with stimuli (such as cytokines or growth factors) added to capture relevant signaling networks that naturally occur in human tissue or pathological conditions. Vascular biology was modeled in both a Th1 (3C system) and a Th2 (4H system) inflammatory environment, as well as in a Th1 inflammatory state specific to arterial smooth muscle cells (CASM3C system). Additional systems recapitulated aspects of the systemic immune response that included monocyte-driven Th1 inflammation (LPS system) or T cell stimulation (SAg system), chronic Th1 inflammation driven by macrophage activation (IMphg system) and the T cell-dependent activation of B cells that occurs in germinal centers (BT system). The BE3C system (Th1) and the BF4T system (Th2) represented airway inflammation of the lung, while the MyoF system modeled myofibroblast-lung tissue remodeling. Lastly, skin biology was addressed in the KF3CT system modeled Th1 cutaneous inflammation and the HDF3CGF system modeled wound healing.
(§2) All cells were from a pool of multiple donors (n=2-6), commercially purchased and handled according to the recommendations of the manufacturers. Human blood derived CD14+ monocytes were differentiated into macrophages in vitro before being added to the IMphg system. Abbreviations were used as follows: human umbilical vein endothelial cells (HUVEC), peripheral blood mononuclear cells (PBMC), human neonatal dermal fibroblasts (HDFn), B cell receptor (BCR), T cell receptor (TCR) and toll-like receptor (TLR). Cell types and stimuli used in each system were as follows:
(§3) 3C system [HUVEC+(IL-1β, TNFα and IFNγ)]; 4H system [HUVEC+(IL-4 and histamine)]; LPS system [PBMC and HUVEC+LPS (TLR4 ligand)]; SAg system [PBMC and HUVEC+T cell receptor (TCR) ligands]; BT system [CD19+B cells and PBMC+(α-IgM and TCR ligands)]; BF4T system [bronchial epithelial cells and HDFn+(TNFα and IL-4)]; BE3C system [bronchial epithelial cells+(IL-1p, TNFα and IFNγ)]; CASM3C system [coronary artery smooth muscle cells+(IL-1p, TNFα and IFNγ)]; HDF3CGF system [HDFn+(IL-1β, TNFα, IFNγ, EGF, bFGF and PDGF-BB)]; KF3CT system [keratinocytes and HDFn+(IL-1β, TNFα and IFNγ)]; MyoF system [differentiated lung myofibroblasts+(TNFα and TGFβ)]; and IMphg system [HUVEC and M1 macrophages+Zymosan (TLR2 ligand)].
(§4) Systems were derived from either single cell types or co-culture systems. Adherent cell types were cultured in 96 or 384-well plates until confluence, followed by the addition of PBMC (SAg and LPS systems). The BT system consisted of CD19+B cells co-cultured with PBMC and stimulated with a BCR activator and low levels of TCR stimulation. Test agents were prepared in DMSO (final concentration <0.1%) and were added 1 hour before stimulation, and remained in culture for 24 hours or as otherwise indicated (48-hrs, MyoF system; 72-hrs, BT system (soluble readouts); 168-hrs, BT system (secreted IgG)). Each plate contained drug controls (e.g., legacy control test agent colchicine at 1.1 μM), negative controls (e.g., non-stimulated conditions) and vehicle controls (e.g., 0.1% DMSO) appropriate for each system. Direct ELISA was used to measure biomarker levels of cell-associated and cell membrane targets. Soluble factors from supernatants were quantified using either HTRF® detection, bead-based multiplex immunoassay or capture ELISA. Overt adverse effects of test agents on cell proliferation and viability (cytotoxicity) were detected by sulforhodamine B (SRB) staining, for adherent cells, and alamarBlue® reduction for cells in suspension. […]

[2] = tested on: PBMC and HUVEC+T cell receptor (TCR) ligands; test: BioMAP SAg system; type: cell-based, human; settings: for Inhibition of biomarker readouts in the SAg system: T cell-driven Th1 vascular inflammation, concentrations of FIGS. 12-16
Description: as §1, §2, §3
Systems were derived from either single cell types or co-culture systems. Adherent cell types were cultured in 96 or 384-well plates until confluence, followed by the addition of PBMC (SAg and LPS systems). The BT system consisted of CD19+B cells co-cultured with PBMC and stimulated with a BCR activator and low levels of TCR stimulation. Test agents were prepared in DMSO (final concentration <0.1%) and were added 1 hour before stimulation, and remained in culture for 24 hours or as otherwise indicated (48-hrs, MyoF system; 72-hrs, BT system (soluble readouts); 168-hrs, BT system (secreted IgG)). Each plate contained drug controls (e.g., legacy control test agent colchicine at 1.1 μM), negative controls (e.g., non-stimulated conditions) and vehicle controls (e.g., 0.1% DMSO) appropriate for each system. Direct ELISA was used to measure biomarker levels of cell-associated and cell membrane targets. Soluble factors from supernatants were quantified using either HTRF® detection, bead-based multiplex immunoassay or capture ELISA. Overt adverse effects of test agents on cell proliferation and viability (cytotoxicity) were detected by sulforhodamine B (SRB) staining, for adherent cells, and alamarBlue® reduction for cells in suspension.

[3] = tested on: PBMC and HUVEC+LPS (TLR4 ligand); test: BioMAP LPS system; type: cell-based, human; settings: monocyte-driven Th1 inflammation; for Increased biomarker readouts in the LPS system: tofacitinib 37-1000 nM; for Inhibition of biomarker readouts in the LPS system: concentrations of FIGS. 12-14
Description: as §1, §2, §3, §4

[4] = tested on: HDFn+(IL-1β, TNFα, IFNγ, EGF, bFGF and PDGF-BB); test: BioMAP HDF3CGF system; type: cell-based, human; settings: for Inhibition of biomarker readouts in the HDF3CGF system: wound healing, Th1-type inflammation, concentrations of FIGS. 12-16
Description: as §1, §2, §3
Systems were derived from either single cell types or co-culture systems. Adherent cell types were cultured in 96 or 384-well plates until confluence, followed by the addition of PBMC (SAg and LPS systems). […] Test agents were prepared in DMSO (final concentration <0.1%) and were added 1 hour before stimulation, and remained in culture for 24 hours or as otherwise indicated (48-hrs, MyoF system; 72-hrs, BT system (soluble readouts); 168-hrs, BT system (secreted IgG)). […] Soluble factors from supernatants were quantified using either HTRF® detection, bead-based multiplex immunoassay or capture ELISA. Overt adverse effects of test agents on cell proliferation and viability (cytotoxicity) were detected by sulforhodamine B (SRB) staining, for adherent cells, and alamarBlue® reduction for cells in suspension.

[5] = PF-06650833 19-500 nM, tofacitinib 37-1000 nM
[6] = BioMAP profile, PF-06650833 19-500 nM, tofacitinib 37-1000 nM
[7] = BioMAP profile, tofacitinib 37-1000 nM

| Structure (SMILES) | Number of annotated readouts with activity [1, 5] | Overt cytotoxicity on primary human cell types [1, 5] | Immunomodulatory activities: Decreased Activity [1, 6] | Inflammation-related activities: Decreased Activity [1, 6] | Antiproliferative effect on primary cell types [1, 5] | Inhibition of biomarker readouts in the SAg system [2] | Inhibition of biomarker readouts in the HDF3CGF system [4] | also measured |
| --- | --- | --- | --- | --- | --- | --- | --- | --- |
| C[C@@H]1CCN(C(=O)CC#N)C[C@@H]1N(C)c1ncnc2[nH]ccc12 [tofacitinib, 3-((3R,4R)-4-Methyl-3-(methyl(7H-pyrrolo[2,3-d]pyrimidin-4-yl)amino)piperidin-1-yl)-3-oxopropanenitrile] | 21 | no evidence of overt cytotoxicity | decreased secreted IgG, CD38, secreted IL-6, CD69, secreted IL-17F; also recorded: *sIL-6, *sIL-17F; also recorded: CD38, CD69, *sIgG, | decreased Eotaxin 3, MCP-1, VCAM-1, I-TAC, MIG, P-selectin; also recorded: MCP-1, Eot3,; also recorded: ITAC, MIG | selectively antiproliferative to T cells | CD38 and CD69 and modestly inhibited CD69 | ITAC and VCAM-1 | Immunomodulatory activities: Increased Activity [1, 7]: increased secreted IL-2; also recorded: *sIL-2; Inflammation-related activities: Increased Activity [1, 7]: increased IL-1α, secreted PGE2; also recorded: *sPGE2; Inflammation-related activities: Modulated Activity [1, 7]: modulated secreted TNFα; also recorded: *sTNFα; Tissue remodeling activities: Increased Activity [1, 7]: increased MMP-9 and MMP9; Cytostatic effect on B cells, vascular cell types or fibroblasts ([1]; tofacitinib 37-1000 nM): no cytostatic effect; Inhibition of biomarker readouts in the SAg system ([2]; listed as Tofacitinib): CD38 and CD69; Proliferation of T cells in the SAg system ([2]; concentrations of FIGS. 13-14): antiproliferative activity; Increased biomarker readouts in the LPS system [3]: increased levels of IL-1α, secreted PGE2 and secreted TNFα; also recorded: stimulated production of IL-1α, sPGE2 and sTNFα; Increased biomarker readouts in the LPS system ([3]; listed as Tofacitinib): IL-1α, sPEG2, and sTNFα; Inhibition of biomarker readouts in the HDF3CGF system ([4]; listed as Tofacitinib): VCAM-1 and ITAC |
| CC[C@@H]1[C@H](F)C(=O)N[C@@H]1COc1nccc2cc(C(N)=O)c(OC)cc12 [PF-06650833, 1-(((2S,3S,4S)-3-Ethyl-4-fluoro-5-oxopyrrolidin-2-yl)methoxy)-7-methoxyisoquinoline-6-carboxamide] | 14 | no evidence of overt cytotoxicity | decreased CD40, CD69, M-CSF, secreted IL-17F; also recorded: CD40, CD69, M-CSF, *sIL-17F | decreased E-selectin, MCP-1, VCAM-1, IL-6, IL-8, IL-1α, secreted TNFα, secreted PGE2; also recorded: MCP-1, VCAM-1, E-selectin, IL-6, IL-8, IL-1α, *sTNFα, *sPGE2 | no antiproliferative effect | no activity | modest inhibition VCAM-1, Col-III, and TIMP2 | Additional activities in the BioMAP systems ([1]; PF-06650833 19-500 nM): modest effects in BT and CASM3C systems and concentration-related decreases in secreted IL-17F and inhibition of secreted TNFα and IL-6 at the higher two concentrations only; Inhibition of biomarker readouts in the LPS system ([3]; listed as 1-(((2S,3S,4S)-3-Ethyl-4-fluoro-5-oxopyrrolidin-2-yl)methoxy)-7-methoxyisoquinol): primarily active across all tested concentrations; also recorded: MCP-1, VCAM-1, E-selectin, IL-8, IL-1a, sTNFa, sPGE2, CD40, CD69, M-CSF, and TF; also recorded: strongly inhibited activation responses; Inhibition of biomarker readouts in the LPS system ([3]; listed as 1-(((2S,3S,4S)-3-ethyl-4-fluoro-5-oxopyrrolidin-2-yl)methoxy)-7-methoxyisoquinol): PGE2, TNFα, IL-1α, and MCP1; also recorded: strongly and selectively inhibited monocyte activation responses; also recorded: MCP-1, VCAM-1, CD40, E-selectin, CD69, IL-8, IL-1α, M-CSF, sPGE2, and sTNFα; MIG, Log10 molar ratio in the HDF3CGF system ([4]; PF-06650833 at 170 nM alone): −0.04121 |
